{"source": "patent US9487479B2", "about": "“Small molecule inhibitors of N-terminus activation of the androgen receptor” (The University of British Columbia, priority 2008, dated 2016)", "key": {"PSA mRNA": {"tested_on": "PSA mRNA", "test": "Androgen-induced PSA mRNA levels in LNCaP cells (qRT-PCR)", "format": "cell-based, human", "conditions": "10 μg/ml, 1 hour pretreatment, R1881 1 nM, 16 hours", "experimental": "Levels of PSA mRNA were measured by quantitative real-time (qRT)-PCR and normalized to levels of GAPDH mRNA (housekeeping gene). White bar: no R1881. Black bars: R1881 (1 nM). MNE: mean normalized expression. DMSO (no R1881) was arbitrarily set at 1.0 for each individual experiment. Bars represent the mean±SE from 3 separate experiments using triplicate technical samples from each experiment.\nPSA is an androgen-regulated gene containing several well-characterized androgen response elements (AREs) in the enhancer and promoter regions. Levels of PSA mRNA are induced by androgen by a mechanism dependent androgen receptor. To test if sintokamides would also block endogenous gene expression induced by androgen, levels of PSA mRNA were measured in response to the synthetic androgen R1881."}, "PC3 cells": {"tested_on": "PC3 cells", "test": "Proliferation of PC3 cells (BrdU incorporation)", "format": "cell-based, human", "conditions": "5 μg/mL", "from_the_text": "LNCaP cells were employed initially for all experiments because they are well-differentiated human prostate cancer cells in which ligand-independent activation of the AR by FSK has been characterized (Nazareth et al 1996 J. Biol. Chem. 271, 19900-19907; and Sadar 1999 J. Biol. Chem. 274, 7777-7783). LNCaP cells express endogenous AR and secrete prostate-specific antigen (PSA) (Horoszewicz et al 1983 Cancer Res. 43, 1809-1818). LNCaP cells can be grown either as monolayers in cell culture or as tumors in the well-characterized xenograft model that progresses to androgen independence in castrated hosts (Sato et al 1996 J. Steroid Biochem. Mol. Biol. 58, 139-146; Gleave et al 1991 Cancer Res. 51, 3753-3761; Sato et al 1997 Cancer Res. 57, 1584-1589; and Sadar et al 2002 Mol. Cancer Ther. 1(8), 629-637). […] Small molecules that specifically target the AR-NTD should have no effect on PC3 cells. This means that they should not alter the proliferation of PC3 cells if they specifically block the AR to mediate their inhibitory effects. R1881 was employed since it is stable and avoids problems associated with the labile physiological ligand dihydrotestosterone (DHT). Reporter specificity may be determined using several alternative reporter gene constructs. […]\nBrdU incorporation was measured 3 days later to indicate changes in proliferation in response to androgen (see FIG. 3B)."}}, "data": [{"smiles": "CCC(=O)N[C@H](C[C@H](C)C(Cl)(Cl)Cl)C(=O)N1C(=O)C=C(OC)[C@@H]1C[C@H](C)C(Cl)Cl", "note": "[CB3.1, Sintokamide A]", "values": [{"measurement": "inhibition of androgen-induced levels of PSA mRNA", "setting": "PSA mRNA", "result": "inhibit"}, {"measurement": "proliferation of PC3 cells (BrdU incorporation)", "setting": "PC3 cells", "result": "did not block proliferation"}]}]}
